As usually defined, the Kd is the constant that tells how readily two partners part at equilibrium.

The values below come from paper PMC5579575, “Study of Alzheimer’s Disease-Related Biophysical Kinetics with a Microslit-Embedded Cantilever Sensor in a Liquid Environment” (Sensors (Basel, Switzerland), 2017).

For test [1], the system named is monoclonal 6E10 antibody (mAb). Description: Quantitative detection of Aβ42 with mAb-immobilized slit cantilever (resonant frequency shift). Format: binding. The following applies: for frequency shift (average): in 10 mM PBS, 30 min, rinsed with PBS, mAb 10 μg/mL immobilized. The protocol: To detect the target molecules, a commercial monoclonal 6E10 antibody (mAb, 10 μg/mL, Covance, Princeton, NJ, USA) was immobilized on the cantilever surfaces by using a conventional coupling method. The mAb is known to include a specific binding ligand with the first 1–16 sequence of human Aβ peptides. Prior to antibody immobilization, the slit cantilever with a 50 nm thick Au surface was cleaned with piranha solution (a 4:1 ratio of H2SO4 to H2O2) and rinsed with deionized water (DI). In addition, 10 mM of 11-Mercaptoundecanoic acid (11-MUC, Sigma-Aldrich, St. Louis, MO, USA) diluted in ethanol was treated for 12 h on the Au surface of the sensor to establish a self-assembled monolayer. The MUC-modified slit cantilever was immersed in a mixture of 1-ethyl-3-(3-dimethylaminopropyl) carbodiimide (EDC, 80 mM, Sigma-Aldrich) and N-hydroxysuccinimide (NHS, 20 mM, Sigma-Aldrich) dissolved for 2 h in 10 mM of phosphate-buffered solution (PBS, pH = 7.4). Then, mAb, which was diluted as 10 µg/mL in 10 mM PBS, was immobilized on the functionalized surface of the slit cantilever for 2 h, followed by rinsing with PBS and DI.
To evaluate the sensing performance of the slit cantilever in a liquid environment, quantification of the synthetic Aβ42 peptide, which has an identical sequence of 42-residue amino acids associated with human AD, was investigated in a physiological-level concentration. Prior to conducting biomolecular interactions, a drift of resonant frequency was verified and stabilized until steady state (Figure S2). The resonance responses reached its steady state within 200 min and the frequency maintained for 60 min with fluctuations up to 4 Hz which can be regarded as a noise level. Detection of target molecules with the slit cantilever is based on the capturing by immobilized mAb on the cantilever beam. It occurs in the measurement of the frequency shift due to mass loading on the surface. Firstly, the specific antibody (mAb) of 10 μg/mL was chemically immobilized on the 60 μm × 280 μm dimension of the Au surface (50 nm thickness) of the slit cantilever. The Aβ42 peptide was diluted with a ten-fold difference from 10 pg/mL to 1 μg/mL in 10 mM PBS. The prepared Aβ42 solution was individually introduced into the slit cantilever for 30 min, followed by rinsing with PBS. The changes of resonant frequencies in PBS were measured before and after the recognition interactions between mAb and target analytes. The resonant frequency decreased according to the concentration increment of target analytes owing to mass adsorption of Aβ42 to the specific binding site of the immobilized mAb. The average values of the frequency shifts were measured as −15.5, −56.5, −119.5, −472.5, −774 and −799 Hz for the concentrations from 10 pg/mL to 1 μg/mL, respectively. As noted earlier, these responses were satisfied with at least three-sigma significance in terms of the signal-to-noise ratio of the sensors.

Test [2] addresses monoclonal 6E10 antibody (mAb). The test is described as follows: Binding affinity (KD) of Aβ42-mAb by Langmuir isotherm fit of slit cantilever responses. The settings on record: global fit of Langmuir isotherm (χ^2 = 0.010958), 1:1 binding; fractional saturation vs. Aβ concentration; 1 μg/mL assumed fully saturated; PBS; read-out: equilibrium dissociation constant (KD). The procedure: To detect the target molecules, a commercial monoclonal 6E10 antibody (mAb, 10 μg/mL, Covance, Princeton, NJ, USA) was immobilized on the cantilever surfaces by using a conventional coupling method. The mAb is known to include a specific binding ligand with the first 1–16 sequence of human Aβ peptides. Prior to antibody immobilization, the slit cantilever with a 50 nm thick Au surface was cleaned with piranha solution (a 4:1 ratio of H2SO4 to H2O2) and rinsed with deionized water (DI). In addition, 10 mM of 11-Mercaptoundecanoic acid (11-MUC, Sigma-Aldrich, St. Louis, MO, USA) diluted in ethanol was treated for 12 h on the Au surface of the sensor to establish a self-assembled monolayer. […]
To evaluate the sensing performance of the slit cantilever in a liquid environment, quantification of the synthetic Aβ42 peptide, which has an identical sequence of 42-residue amino acids associated with human AD, was investigated in a physiological-level concentration. […] The changes of resonant frequencies in PBS were measured before and after the recognition interactions between mAb and target analytes. […] The average values of the frequency shifts were measured as −15.5, −56.5, −119.5, −472.5, −774 and −799 Hz for the concentrations from 10 pg/mL to 1 μg/mL, respectively. […]

The target of a further test is Aβ peptides. The settings on record: conventional surface plasmon resonance (SPR), ref [27]; cited from earlier work. The protocol:
Meanwhile, Equation (5) predicts the hyperbolic plot of fractional saturation ([AB]/[B]) vs. Aβ concentration. This curve follows isotherms for relatively obscure thermodynamic reasons. […] The acquired value is consistent with those of previous studies (1.2 nM) using conventional surface ...
(In general: In SPR one partner is held on a chip, and binding of the other changes the refractive index at the surface.)

As for “Aβ42: synthetic Aβ42 peptide, which has an identical sequence of 42-residue amino acids associated with human AD (Sigma-Aldrich)”, the “frequency shift (average)” value in test [1] (10 pg/mL Aβ42) is listed as −15.5 Hz; in test [1] (100 pg/mL Aβ42 (ten-fold dilution series 10 pg/mL to 1 μg/mL)) it was −56.5 Hz; in test [1] (1 ng/mL Aβ42 (ten-fold dilution series 10 pg/mL to 1 μg/mL)), −119.5 Hz; in test [1] (10 ng/mL Aβ42 (ten-fold dilution series 10 pg/mL to 1 μg/mL)), −472.5 Hz; in test [1] (100 ng/mL Aβ42 (ten-fold dilution series 10 pg/mL to 1 μg/mL)) it was −774 Hz; in test [1] (1 μg/mL Aβ42), −799 Hz. In test [1] (dynamic range 100 pg/mL to 100 ng/mL Aβ42, logarithmic concentration), the sensitivity was 330 Hz/decade. Further, the Kd in test [2] was 1.75 nM; on Aβ peptides, 1.2 nM.

With “PSA: prostate cancer antigen (PSA) protein introduced as a control experiment”, the “resonant frequency response, negative control” value in test [1] (PSA protein as control experiment, mAb-immobilized cantilever) is listed as “no obvious responses were observed”.
